# Values quoted from earlier work, collected in patent US8652504B2, “Solid polymer delivery compositions and methods for use thereof” (Medivas, LLC, priority 2005, dated 2014).
# Columns and labels:
# [1] = in vivo
# nerve impulses = conditions: local anesthetic
SMILES,"morphine requirements and subjective pain scores (intra-articular bupivacaine (up to 0.5%) at 4 mL/hr, first 24 hours after surgery)",serum bupivacaine level (one patient receiving 0.5% intra-articular bupivacaine at 4 mL/hr) [µg/mL],serum bupivacaine level at which toxicity has been reported / generally considered toxic [1] [µg/mL],duration of action (nerve impulses) [h]
CCCCN1CCCCC1C(=O)Nc1c(C)cccc1C (centres unmarked) [bupivacaine],neither reduced morphine requirements nor decreased subjective pain scores,1.2,1.0,6 to 8
CCN(CC)CC(=O)Nc1c(C)cccc1C [lidocaine],–,–,–,1 to 2
